Reference: patent US20100144003A1, “INDUCTION OF MICROBIAL SECONDARY METABOLITES” (AQUAPHARM BIO-DISCOVERY LIMITED, priority 2007, published 2010)

Test system: Gram-positive bacterial strains
Assay: activity against Gram-positive bacterial strains
Format: cell-based
Conditions: compound produced by AQP4511 in PDY medium supplemented with 0.5 mM NaNO3
Description: A Streptomyces sp. strain AQP4511 produced a red orange compound, which has a naphthoquinone structure, in a PDY medium supplemented with 0.5 mM NaNO3.

## COc1cc(O)c2c(c1)C(=O)C1=C(C2=O)C(OC(C)=O)C(O)C(C)O1 (stereo not shown) [Gunacin]
  activity against most of Gram-positive bacterial strains: very strong activity
